Literature values, collected in patent US6521209B1, “Bifunctional detection agents” (California Institute of Technology, priority 1996, dated 2003).

Settings: for stability constant (K), formation constant, logK: Gd(III) complex

In the case of `O=C([O-])CN1CCN(CC(=O)[O-])CCN(CC(=O)O)CCN(CC(=O)[O-])CC1.[Gd+3]` [Gd-DOTA], the “stability constant (K), formation constant, logK” value is given as 28.5 and the dissociation kinetics (at physiological pH) is given as “very slow dissociation kinetics”.
In the case of `O=C([O-])CN(CCN(CC(=O)[O-])CC(=O)O)CCN(CC(=O)[O-])CC(=O)O.[Gd+3]` [Gd(DTPA)], the “stability constant (K), formation constant, logK” value is given as 22.4.
